From article PMC6470642, “Phenalenones from a Marine-Derived Fungus Penicillium sp” (Marine Drugs, 2019)
Like-named read-outs stand apart in the source and are kept apart here.

How the values were obtained:
[1] = cytotoxicity assay, K562; assay type: cell-based; details: human, K562 cells
Procedure: (§1) The cytotoxicity assay was performed in accordance with the published protocols. The antimicrobial assay was performed according to the method described previously.

[2] = cytotoxicity assay, A549; assay type: cell-based; details: human, A549 cells
Procedure: as §1

[3] = system: RAW 264.7 cells; test: iNOS assay: inhibition of LPS-stimulated NO production (Griess reaction); assay type: cell-based, mouse; details: 18 h
Procedure: Mouse macrophage RAW 264.7 cells obtained from the American Type Culture Collection (ATCC, Rockville, MD, USA) were cultured in Dulbecco’s modified Eagle’s medium (DMEM) supplemented with 10% heat-inactivated fetal bovine serum (FBS) with antibiotics-antimycotics (PSF; 100 units/mL penicillin G sodium, […] streptomycin, and 250 ng/mL amphotericin B). The cells were seeded in 24-well plates (2 × 10^5 cells/mL). The next day, the culture media was changed to 1% FBS-DMEM, and the samples were treated with the test compounds. After pretreatment with the drug for 1 h, 1 μg/mL lipopolysaccharides (LPS) was added to stimulate NO production. The cells were incubated for an additional 18 h, and the amount of NO produced in the supernatant was determined by Griess reaction. Then, the absorbance was measured at 540 nm, and the nitrite concentration was determined by comparison with a sodium nitrite standard curve. The percent inhibition was calculated using the following formula: [1 − (NO level of test samples/NO levels of vehicle-treated control)] × 100. The IC50 values were calculated through nonlinear regression analysis using TableCurve 2-D v5.01 (Systat Software Inc., San Jose, CA, USA). At the same time, MTT assays were also performed to test cell viability. MTT solution (final concentration of 500 μg/mL) was added to the cells, and they were incubated for 4 h at 37 °C. The culture media was removed, and the remaining dyes were dissolved in DMSO. The absorbance of each well was measured at 570 nm using a VersaMax ELISA microplate reader (Molecular Devices, Sunnyvale, CA, USA). The percent survival was determined by comparison with a control group (LPS+).
Figure S54. Inhibition of NO production of herqueinone compounds purified from Penicillium herquei. The effects of compounds on NO production in RAW 264.7 cells. (A) Cells were pre-treated with compounds (20 uM) and AMT (0.2 uM) for 1 h and LPS (1 ug/mL ) was added further incubated for 18 h . The amount of iNOS was examined by Griess reaction. (B) After iNOS level was measured, cell viability was tested using MTT assay. The values are expressed as the means ± SD of triplicate tests. (C) RAW 264.7 cells were pretreated with various concentrations of compound 7 and AMT (0.2 uM) for 1 h, and LPS (1 ug/mL) was added further incubated for 18 h. The amount of iNOS was examined b y Griess reaction. (D) Cell viability was tested by MTT assay. The values are expressed as the means ± SD of triplicate tests.

[4] = system: HUVECs; test: VEGF-induced tube formation assay (angiogenesis); assay type: cell-based, human; details: VEGF 50 ng/mL, 6 h, read-out: IC50, inhibition of tube formation
Procedure: Human umbilical vascular endothelial cells (HUVECs) were purchased from the American Type Culture Collection (ATCC, Rockville, MD, USA), and cultured in EGM-2 (Lonza, Walkerswille, MD, USA) supplemented with 10% FBS and antibiotics-antimycotics (PSF). The cells were maintained at 37 °C under a humidified atmosphere containing 5% CO2. A 96-well plate was coated with Matrigel (Corning) for 30 min at 37 °C under a humidified atmosphere containing 5% CO2. HUVECs (1.8 × 10^4 cells/well) were mixed with the test compounds in 0.5% FBS EBM-2 medium with VEGF (50 ng/mL) or 0.5% FBS EBM-2 medium only for the VEGF negative control. The cells were incubated for 6 h and photographed using an inverted microscope (Olympus Optical Co. Ltd., Tokyo, Japan). Images were quantified with an angiogenesis analyzer using ImageJ software. Tube formation activity was calculated using the following formula: [(Total segment # (tested compound) − Total segment # (VEGF−)]/[Total segment # (VEGF+) − Total segment # (VEGF−)] × 100 (# stands for tubule segment number). The IC50 values were calculated through nonlinear regression analysis using TableCurve 2-D v5.01 (Systat Software Inc., San Jose, CA, USA). Cell viabilities were evaluated with the MTT assay. HUVECs (0.8 × 10^4 cells/well) were seeded into a 96-well plate and indicated for 1 day. The culture medium was replaced with serum-free medium, and the cells were incubated overnight. After starvation, the cells were treated with the test compounds and VEGF (50 ng/mL) in 2% FBS EBM-2 medium. Cells were incubated for a further 24 h, and MTT solution (final concentration of 500 μg/mL) was added to the cells to measure the cell viability. The formazan products were dissolved in DMSO. The absorbance of each well was measured at 570 nm using a VersaMax ELISA microplate reader (Molecular Devices, Sunnyvale, CA, USA).
Figure S55. Angiogenesis activities of herqueinone compounds purified from Penicillium herquei. Effects of 6 on VEGF-induced tube formation and cell viability. Tube formation activity was measured after cells were incubated with indicated concentrations of 6 on matrigel-coated 96wells for 6 h in the presence of VEGF (50 ng/mL) compared to control in the absence of VEGF. Cell viability was measured by MTT assay after treat with indicated concentrations of 6 in the presence of VEGF (50 ng/mL) for 24 h. The values are expressed as the means ± SD of triplicate tests. * p ≤ 0.05, ** p ≤ 0.01 and *** p ≤ 0.001.

[5] = system: hBM-MSCs; test: adiponectin production assay during adipogenesis (ELISA); assay type: cell-based; details: Homo sapiens
Procedure: Human bone marrow-mesenchymal stem cells (hBM-MSCs) were purchased from Lonza, Inc. (Walkersville, MD, USA) and cultured in low-glucose (1 g/L) DMEM supplemented with 10% FBS, penicillin-streptomycin, and Glutamax^TM (Invitrogen, Carlsbad, CA, USA). To induce adipogenesis, the cell growth medium was replaced with high-glucose (4.5 g/L) DMEM supplemented with 10% FBS, penicillin-streptomycin, 10 μg/mL insulin, 0.5 μM dexamethasone, and 0.5 mM 3-isobutyl-1-methylxanthine (IBMX) (IDX conditions). IBMX, pioglitazone, and aspirin were purchased from Sigma-Aldrich (St. Louis, MO, USA). hBM-MSCs were stained with 0.2% oil red O (ORO) reagent for 10 min at 24 °C, and then washed with H2O four times. Following a 10-min elution with isopropanol, the absorbance was measured at 500 nm using a spectrophotometer. To visualize the nucleus, the hBM-MSCs were counterstained with hematoxylin reagent for 2 min and then washed twice with H2O. The level of adipocyte differentiation was observed and counted using an inverted phase microscope. A Quantikine immunoassay kit (R&D Systems, Minneapolis, MN, USA) was used for quantitative determination of adiponectin in the cell culture supernatants.
Figure S56. PPARγ binding and adiponectin secretion -promoting activities of herqueinone compounds purified from Penicillium herquei. (A) TR-FRET based competitive PPARγ binding assays were performed for herqueinone compounds 1-11. (B) Ki values for compounds 1, 3, 4, 7, 8 and 9 were calculated based on the Cheng and Prusoff analysis. (C) Herqueinone compounds were added to the IDX condition when adipogenesis was induced in hBM-MSCs. On the fifth day, the cell culture supernatants were harvested.
ELISA was performed to measure the level of adiponectin. Positive controls were pioglitazone and aspirin.
(D) The concentration dependency of herqueinone compounds 1, and 9 on adiponectin secretion-promoting activity was determined. Values represent means ± SD (n=3); * p ≤ 0.05 and ** p ≤ 0.01.
(1 picture or pasted object on this page, not shown here)

[6] = Mus musculus, RAW264.7, LPS 1 μg/mL
[7] = IDX conditions, read-out: IC50 values, adiponectin secretion-promoting effects
[8] = adiponectin secretion, Table S1, read-out: EC50 hBM-MSC(B7)

CC(=O)CC1(O)C(=O)C2=c3c(c(O)cc(C)c3=C3O[C@H](C)C(C)(C)[C@]3(O)C2=O)C1=O (single isomer, unassigned) [Compound 4, Oxopropylisoherqueinone A]
IC50 [1]: > 10 µM
IC50 [2]: > 10 µM
IC50 [3, 6]: > 20 µM
IC50 ([4]; Homo sapiens, HUVEC): > 40 µM

CC1CCN=C(N)S1 (stereo not shown) [AMT, reference compound]
IC50 ([3]; LPS 1 μg/mL): 0.2 µM

COc1c(O)c2c3c(c1O)C(=O)[C@@]1(O)C(=C3C(C)=C(O)C2=O)O[C@@H](C)C1(C)C [Compound 1, ent-Peniciherqueinone]
IC50 [1]: > 10 µM
IC50 [2]: > 10 µM
IC50 [3, 6]: > 20 µM
IC50 ([4]; Homo sapiens, HUVEC): > 40 µM
EC50 [5, 7]: 57.5 µM
EC50 [5, 8]: 57.5 µM

CC1=C(O)C(=O)c2c(O)c(O)c(O)c3c2C1=C1O[C@@H](C)C(C)(C)[C@@]1(O)C3=O [Compound 2, 12-Hydroxynorherqueinone]
IC50 [1]: > 10 µM
IC50 [2]: > 10 µM
IC50 [3, 6]: > 20 µM
IC50 ([4]; Homo sapiens, HUVEC): > 40 µM

COc1c(O)c2c3c(c1O)C(=O)[C@]1(O)C(=C3C(C)=CC2=O)O[C@H](C)C1(C)C [Compound 3, ent-Isoherqueinone]
IC50 [1]: > 10 µM
IC50 [2]: > 10 µM
IC50 [3, 6]: > 20 µM
IC50 ([4]; Homo sapiens, HUVEC): > 40 µM

CC(=O)CC1(O)C(=O)C2=c3c(c(O)cc(C)c3=C3O[C@H](C)C(C)(C)[C@]3(O)C2=O)C1=O (stereo partly shown) [Compound 5, Oxopropylisoherqueinone B]
IC50 ([3]; LPS 1 μg/mL): > 20 µM
IC50 [4]: > 40 µM

Cc1cc(O)c2c3c1=C1O[C@@H](C)C(C)(C)[C@@]1(O)C(=O)C=3C(=O)OC2=O [Compound 6, 4-Hydroxysclerodin]
IC50 [1]: > 10 µM
IC50 [2]: > 10 µM
IC50 [3, 6]: > 20 µM
IC50 ([4]; Homo sapiens, HUVEC): 20.9 µM

CC(=O)CC1(O)C(=O)c2c(O)cc(C)c3c4c(c(O)c(c23)C1=O)C(C)(C)[C@@H](C)O4 (stereo partly shown) [Compound 7, acetone adduct of the triketone]
IC50 [1]: > 10 µM
IC50 [2]: > 10 µM
IC50 [3, 6]: 3.2 µM
IC50 ([4]; Homo sapiens, HUVEC): > 40 µM

COc1c(O)c2c3c(c1O)C(=O)[C@@]1(O)C(=C3C(C)=CC2=O)O[C@H](C)C1(C)C [Compound 8, herqueinone]
IC50 [1]: > 10 µM
IC50 [2]: > 10 µM
IC50 [3, 6]: > 20 µM
IC50 ([4]; Homo sapiens, HUVEC): > 40 µM

COc1c(O)c2c3c(c1O)C(=O)[C@@]1(O)C(=C3C(C)=CC2=O)O[C@@H](C)C1(C)C [Compound 9, isoherqueinone]
IC50 [1]: > 10 µM
IC50 [2]: > 10 µM
IC50 [3, 6]: > 20 µM
IC50 ([4]; Homo sapiens, HUVEC): > 40 µM
EC50 [5, 7]: 39.7 µM
EC50 [5, 8]: 39.7 µM

Cc1cc(O)c2c3c(c(O)c4c(c13)O[C@@H](C)C4(C)C)C(=O)OC2=O [Compound 10, sclerodin]
IC50 [1]: > 10 µM
IC50 [2]: > 10 µM
IC50 [3, 6]: > 20 µM
IC50 ([4]; Homo sapiens, HUVEC): > 40 µM

Cc1cc(O)c2c3c(c(O)c4c(c13)O[C@@H](C)C4(C)C)C(=O)C(=O)O2 [Compound 11, scleroderolide]
IC50 [1]: > 10 µM
IC50 [2]: > 10 µM
IC50 [3, 6]: > 20 µM
IC50 ([4]; Homo sapiens, HUVEC): > 40 µM

CCc1ccc(CCOc2ccc(CC3SC(=O)NC3=O)cc2)nc1 (stereo not shown) [Pioglitazone, pioglitazone, reference compound]
EC50 [5, 8]: 0.69 µM

CCN(CC)CCNC(=O)c1c(C)[nH]c(/C=C2\C(=O)Nc3ccc(F)cc32)c1C [Sunitinib, reference compound]
IC50 ([4]; Homo sapiens, HUVEC): 1.5 µM
